According to ChEMBL document CHEMBL1201862, “PubChem BioAssay data set” (2004):
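Following 48 hours of exposure in 96-well plates, responses at five concentrations were used to interpolate endpoints linearly. GI50 marks 50% less growth.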 Activity calls are given as the source filed them. Rule as the data show it: active = GI50 up to about 1.1 µM and inactive = higher.

Assays:
Experiment in all cases: NCI anticancer screen, dose series, 48 h
NCI-H522 = tested on: NCI-H522
NCI-H460 = tested on: NCI-H460
SK-OV-3 = tested on: SK-OV-3
SF-268 = tested on: SF-268
UACC-62 = tested on: UACC-62
786-0 = tested on: 786-0
RPMI-8226 = tested on: RPMI-8226
DMS-114 = tested on: DMS-114
HOP-18 = tested on: HOP-18
SN12C = tested on: SN12C
OVCAR-8 = tested on: OVCAR-8
KM12 = tested on: KM12
COLO 205 = tested on: COLO 205
OVCAR-4 = tested on: OVCAR-4
NCI-H23 = tested on: NCI-H23
XF498 = tested on: XF498
A498 = tested on: A498
IGROV-1 = tested on: IGROV-1
SF-539 = tested on: SF-539
SF-295 = tested on: SF-295
DMS-273 = tested on: DMS-273
OVCAR-5 = tested on: OVCAR-5
TK-10 = tested on: TK-10
SK-MEL-5 = tested on: SK-MEL-5
SNB-19 = tested on: SNB-19
ACHN = tested on: ACHN
M14 = tested on: M14
KM-20L2 = tested on: KM-20L2
MOLT-4 = tested on: MOLT-4
HL-60 = tested on: HL-60
UO-31 = tested on: UO-31
UACC-257 = tested on: UACC-257
A549 = tested on: A549
HCT-15 = tested on: HCT-15
K562 = tested on: K562
HT-29 = tested on: HT-29
HCT-116 = tested on: HCT-116
SK-MEL-2 = tested on: SK-MEL-2
SK-MEL-28 = tested on: SK-MEL-28
NCI-H226 = tested on: NCI-H226
DLD-1 = tested on: DLD-1
LXFL 529 = tested on: LXFL 529
CAKI-1 = tested on: CAKI-1
HOP-62 = tested on: HOP-62
SNB-75 = tested on: SNB-75
SW-620 = tested on: SW-620
U-251 = tested on: U-251
Malme-3M = tested on: Malme-3M
EKVX = tested on: EKVX
LOX IMVI = tested on: LOX IMVI
M19-MEL = tested on: M19-MEL
CCRF-CEM = tested on: CCRF-CEM
RXF 393 = tested on: RXF 393
SNB-78 = tested on: SNB-78
HCC 2998 = tested on: HCC 2998
SR = tested on: SR
OVCAR-3 = tested on: OVCAR-3
HOP-92 = tested on: HOP-92

SMILES: FC(F)(F)P1C2C=CC(CC2)C1(F)F (stereo not given)
- GI50 (NCI-H522): > 100 µM (inactive)
- GI50 (NCI-H460): > 100 µM (inactive)
- GI50 (SK-OV-3): > 100 µM (inactive)
- GI50 (SF-268): > 100 µM (inactive)
- GI50 (UACC-62): > 100 µM (inactive)
- GI50 (786-0): > 100 µM (inactive)
- GI50 (RPMI-8226): > 100 µM (inactive)
- GI50 (DMS-114): > 100 µM (inactive)
- GI50 (HOP-18): > 100 µM (inactive)
- GI50 (SN12C): > 100 µM (inactive)
- GI50 (OVCAR-8): > 100 µM (inactive)
- GI50 (KM12): > 100 µM (inactive)
- GI50 (COLO 205): > 100 µM (inactive)
- GI50 (OVCAR-4): > 100 µM (inactive)
- GI50 (NCI-H23): > 100 µM (inactive)
- GI50 (XF498): > 100 µM (inactive)
- GI50 (A498): > 100 µM (inactive)
- GI50 (IGROV-1): > 100 µM (inactive)
- GI50 (SF-539): > 100 µM (inactive)
- GI50 (SF-295): > 100 µM (inactive)
- GI50 (DMS-273): > 100 µM (inactive)
- GI50 (OVCAR-5): > 100 µM (inactive)
- GI50 (TK-10): > 100 µM (inactive)
- GI50 (SK-MEL-5): > 100 µM (inactive)
- GI50 (SNB-19): > 100 µM (inactive)
- GI50 (ACHN): > 100 µM (inactive)
- GI50 (M14): > 100 µM (inactive)
- GI50 (KM-20L2): > 100 µM (inactive)
- GI50 (MOLT-4): > 100 µM (inactive)
- GI50 (HL-60): > 100 µM (inactive)
- GI50 (UO-31): > 100 µM (inactive)
- GI50 (UACC-257): > 100 µM (inactive)
- GI50 (A549): > 100 µM (inactive)
- GI50 (HCT-15): > 100 µM
- GI50 (K562): > 100 µM (inactive)
- GI50 (HT-29): > 100 µM (inactive)
- GI50 (HCT-116): > 100 µM (inactive)
- GI50 (SK-MEL-2): > 100 µM (inactive)
- GI50 (SK-MEL-28): > 100 µM (inactive)
- GI50 (NCI-H226): > 100 µM (inactive)
- GI50 (DLD-1): > 100 µM (inactive)
- GI50 (LXFL 529): > 100 µM (inactive)
- GI50 (CAKI-1): > 100 µM (inactive)
- GI50 (HOP-62): > 100 µM (inactive)
- GI50 (SNB-75): > 100 µM (inactive)
- GI50 (SW-620): 63.2 µM (inactive)
- GI50 (U-251): > 100 µM (inactive)
- GI50 (Malme-3M): > 100 µM (inactive)
- GI50 (EKVX): > 100 µM (inactive)
- GI50 (LOX IMVI): > 100 µM (inactive)
- GI50 (M19-MEL): > 100 µM (inactive)
- GI50 (CCRF-CEM): > 100 µM (inactive)
- GI50 (RXF 393): > 100 µM (inactive)
- GI50 (SNB-78): > 100 µM (inactive)
- GI50 (HCC 2998): > 100 µM (inactive)

SMILES: COC(=O)C(C(=O)C(=O)Nc1ccc([N+](=O)[O-])cc1)c1nc2cc(C)c(C)cc2nc1O (stereo not given)
- GI50 (NCI-H522): > 100 µM (inactive)
- GI50 (NCI-H460): > 100 µM (inactive)
- GI50 (SK-OV-3): > 100 µM (inactive)
- GI50 (SF-268): > 100 µM (inactive)
- GI50 (UACC-62): > 100 µM (inactive)
- GI50 (786-0): > 100 µM (inactive)
- GI50 (RPMI-8226): > 100 µM (inactive)
- GI50 (SR): > 100 µM (inactive)
- GI50 (DMS-114): > 100 µM (inactive)
- GI50 (HOP-18): > 100 µM (inactive)
- GI50 (SN12C): > 100 µM (inactive)
- GI50 (KM12): > 100 µM (inactive)
- GI50 (COLO 205): > 100 µM (inactive)
- GI50 (OVCAR-4): > 100 µM (inactive)
- GI50 (NCI-H23): > 100 µM (inactive)
- GI50 (XF498): > 100 µM (inactive)
- GI50 (A498): > 100 µM (inactive)
- GI50 (IGROV-1): > 100 µM (inactive)
- GI50 (SF-539): > 100 µM (inactive)
- GI50 (SF-295): > 100 µM (inactive)
- GI50 (OVCAR-5): > 100 µM (inactive)
- GI50 (TK-10): > 100 µM (inactive)
- GI50 (SK-MEL-5): > 100 µM (inactive)
- GI50 (SNB-19): > 100 µM (inactive)
- GI50 (ACHN): > 100 µM (inactive)
- GI50 (M14): > 100 µM (inactive)
- GI50 (OVCAR-3): > 100 µM (inactive)
- GI50 (KM-20L2): > 100 µM (inactive)
- GI50 (MOLT-4): > 100 µM (inactive)
- GI50 (HL-60): > 100 µM (inactive)
- GI50 (UO-31): > 100 µM (inactive)
- GI50 (UACC-257): > 100 µM (inactive)
- GI50 (A549): > 100 µM (inactive)
- GI50 (HCT-15): > 100 µM
- GI50 (K562): > 100 µM (inactive)
- GI50 (HT-29): > 100 µM (inactive)
- GI50 (HCT-116): > 100 µM (inactive)
- GI50 (SK-MEL-28): > 100 µM (inactive)
- GI50 (NCI-H226): > 100 µM (inactive)
- GI50 (DLD-1): > 100 µM (inactive)
- GI50 (LXFL 529): > 100 µM (inactive)
- GI50 (CAKI-1): > 100 µM (inactive)
- GI50 (HOP-62): > 100 µM (inactive)
- GI50 (SNB-75): > 100 µM (inactive)
- GI50 (SW-620): > 100 µM (inactive)
- GI50 (U-251): > 100 µM (inactive)
- GI50 (Malme-3M): > 100 µM (inactive)
- GI50 (EKVX): > 100 µM (inactive)
- GI50 (LOX IMVI): > 100 µM (inactive)
- GI50 (M19-MEL): > 100 µM (inactive)
- GI50 (CCRF-CEM): > 100 µM (inactive)
- GI50 (HOP-92): > 100 µM (inactive)
- GI50 (RXF 393): > 100 µM (inactive)
- GI50 (SNB-78): > 100 µM (inactive)
- GI50 (HCC 2998): 81.3 µM (inactive)

SMILES: CCc1cc(C)cc2[n+]1CC=C2.[O-][Cl+3]([O-])([O-])[O-]
- GI50 (NCI-H522): 13.1 µM (inactive)
- GI50 (NCI-H460): 27.3 µM (inactive)
- GI50 (SF-268): 32.5 µM (inactive)
- GI50 (786-0): 27.5 µM (inactive)
- GI50 (DMS-114): 10 µM (inactive)
- GI50 (HOP-18): 0.0676 µM (active)
- GI50 (SN12C): 22.2 µM (inactive)
- GI50 (OVCAR-8): 3.97 µM (inactive)
- GI50 (KM12): 32.9 µM (inactive)
- GI50 (COLO 205): 21.9 µM (inactive)
- GI50 (OVCAR-4): 34.1 µM (inactive)
- GI50 (NCI-H23): 13.9 µM (inactive)
- GI50 (XF498): 2.56 µM (inactive)
- GI50 (SF-539): 26.7 µM (inactive)
- GI50 (SF-295): 31.6 µM (inactive)
- GI50 (DMS-273): 0.593 µM (active)
- GI50 (OVCAR-5): 15.5 µM (inactive)
- GI50 (TK-10): 44.1 µM (inactive)
- GI50 (SNB-19): 28.6 µM (inactive)
- GI50 (ACHN): 10.4 µM (inactive)
- GI50 (M14): 22.3 µM (inactive)
- GI50 (KM-20L2): 21.5 µM (inactive)
- GI50 (HL-60): 0.125 µM (active)
- GI50 (UO-31): 16.9 µM (inactive)
- GI50 (UACC-257): 3.55 µM (inactive)
- GI50 (A549): 24.6 µM (inactive)
- GI50 (HT-29): 19.4 µM (inactive)
- GI50 (HCT-116): 18.2 µM (inactive)
- GI50 (SK-MEL-2): 15.6 µM (inactive)
- GI50 (SK-MEL-28): 27.2 µM (inactive)
- GI50 (NCI-H226): 15.7 µM (inactive)
- GI50 (LXFL 529): 4.17 µM (inactive)
- GI50 (CAKI-1): 28.2 µM (inactive)
- GI50 (HOP-62): 18.7 µM (inactive)
- GI50 (SNB-75): 22.9 µM (inactive)
- GI50 (SW-620): 7.33 µM (inactive)
- GI50 (U-251): 39.5 µM (inactive)
- GI50 (Malme-3M): 15.9 µM (inactive)
- GI50 (EKVX): 25.4 µM (inactive)
- GI50 (LOX IMVI): 32.7 µM (inactive)
- GI50 (M19-MEL): 13.8 µM (inactive)
- GI50 (HOP-92): 11.6 µM (inactive)
- GI50 (RXF 393): > 100 µM (inactive)
- GI50 (SNB-78): 33.9 µM (inactive)
- GI50 (HCC 2998): 43.6 µM (inactive)
